Reference: US6727237B2, “Inhibitors of bacterial NAD synthetase” (priority 1998, dated 2004)
Values after ≈ are worked out from the molar mass of the structure shown. Values joined by “and” are separate entries in the source; they are usually repeats but may differ in a detail not shown here. Equal entries are not always repeated.

Experiments:
[1] = system: Staphylococcus epidermitis; test: Dose response of bacterial growth inhibition, MIC85; conditions: minimum inhibitory concentration to achieve 85% inhibition, S. epidermitis
[2] = system: Staphylococcus epidermitis; test: Bacterial growth inhibition screen in LB media (absorbance 595 nm), percent inhibition; conditions: for % Inhibition: S. epidermitis
[3] = biological target: T1, bacterial NAD synthetase enzyme (Bacillus subtilis, UniProt P08164); test: biochemical; assay type: biochemical
T1 sequence (P08164 2-272 limits assumed): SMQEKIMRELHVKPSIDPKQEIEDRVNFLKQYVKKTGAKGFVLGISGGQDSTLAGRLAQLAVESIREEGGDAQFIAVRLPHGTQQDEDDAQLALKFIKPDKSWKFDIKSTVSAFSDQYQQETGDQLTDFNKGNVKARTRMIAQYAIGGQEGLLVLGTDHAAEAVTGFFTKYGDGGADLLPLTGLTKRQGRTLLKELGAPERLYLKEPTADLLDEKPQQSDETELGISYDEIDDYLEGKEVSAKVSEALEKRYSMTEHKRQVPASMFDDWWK

[4] = compound at 0.2 mM (Table 312A)

SMILES | % Inhibition ([2]; concentration screened 10 uM) | % Inhibition [3, 4] | also measured
CN(C)c1cccc(C(=O)OCCCCCCCCCn2ccc3cc([N+](=O)[O-])ccc32)c1 [Compound 841] | 98.90% |  | MIC85 [1]: 10 µM (≈ 4.52 µg/mL)
COC(=O)C=Cc1cn(CCCCCCC[n+]2ccccc2)c2ccccc12 [Compound 261] | 92.51% |  | MIC85 [1]: 30 µM
C[n+]1cc(C(=O)OCCCCCCn2ccc3cc(OCc4ccccc4)ccc32)cc2ccccc21 [Compound 827] | 95.86% |  | MIC85 [1]: 3.7 µM
COc1ccc2c(ccn2CCCCCCCOC(=O)c2cc3ccccc3[n+](C)c2)c1 [Compound 823] | 97.03% |  | MIC85 [1]: 10 µM
C[N+](C)(C)c1cccc(C(=O)OCCCCCCCCn2ccc3cc(OCc4ccccc4)ccc32)c1 [Compound 809] | 99.81% |  | MIC85 [1]: 10 µM
CN(C)c1ccc(CC(=O)OCCCCCCCn2ccc3cc([N+](=O)[O-])ccc32)cc1 [Compound 851] | 98.90% |  | MIC85 [1]: 30 µM (≈ 13.1 µg/mL)
COc1ccc2c(ccn2CCCCCCCCOC(=O)c2cccc([N+](C)(C)C)c2)c1 [Compound 804] | 97.29% |  | MIC85 [1]: 30 µM
O=C(OCCCCCCCCn1ccc2cc([N+](=O)[O-])ccc21)c1cnc2ccccc2c1 [Compound 834] | 98.13% |  | MIC85 [1]: 3.7 µM (≈ 1.65 µg/mL)
C[n+]1cc(C(=O)OCCCCCn2ccc3cc(OCc4ccccc4)ccc32)cc2ccccc21 [Compound 826] | 92.57% |  | MIC85 [1]: 3.7 µM
C[N+](C)(C)c1cccc(C(=O)OCCCCCCn2ccc3cc(OCc4ccccc4)ccc32)c1 [Compound 807] | 97.22% |  | MIC85 [1]: 10 µM
COc1ccc2[nH]c(CCC[n+]3ccccc3)cc2c1 [Compound 372] | 67.34% |  | MIC85 [1]: 30 µM
CC(=O)c1ccc2[nH]c(CCCCCCCOC(=O)c3cccnc3)cc2c1 [Compound 673] | 1.50% | 1.81% | 
O=C(OCCCCCCCCc1cc2cc(Oc3ccccc3)ccc2[nH]1)c1cccnc1 [Compound 662] | 3.27% | 8.39% | 
COc1ccc2c(ccn2CCCCCOC(=O)c2cc3ccccc3[n+](C)c2)c1 [Compound 821] | 95.02% |  | MIC85 [1]: 30 µM
O=C(O)c1ccc2[nH]c(CCC[n+]3cccc4ccccc43)cc2c1 [Compound 492] | 11.00% | 2.59% | 
Fc1ccc2[nH]c(CCCCC[n+]3ccccc3)cc2c1 [Compound 344] | 8.08% | 4.58% | 
CC(=O)c1ccc2[nH]c(CCCCC[n+]3ccccc3)cc2c1 [Compound 368] |  |  | % Inhibition ([3]; compound at 0.1 mM (Table 314)): 21.10%; % Inhibition ([2]; concentration screened 100 uM): 91.36%
O=C(c1ccccc1)c1ccc2[nH]c(CCCCCC[n+]3cccc4ccccc43)cc2c1 [Compound 465] | 8.08% | 7.92% | 
c1ccc(-c2ccc3[nH]c(CCC[n+]4cccc5ccccc54)cc3c2)cc1 [Compound 432] | 8.91% | 13.21% | 
Cc1ccc2[nH]c(CCCCCC[n+]3ccc4ccccc4c3)cc2c1 [Compound 513] |  | 23.66% | % Inhibition ([2]; concentration screened 100 uM): 17.86%
c1ccc(Oc2ccc3[nH]c(CCCCC[n+]4cccc5ccccc54)cc3c2)cc1 [Compound 458] | 22.77% | 15.72% | 
CC(C)c1ccc2[nH]c(CCCCC[n+]3ccc4ccccc4c3)cc2c1 [Compound 536] |  | 32.49% | % Inhibition ([2]; concentration screened 100 uM): 96.64%
CC(C)c1ccc2[nH]c(CCC[n+]3cccc4ccccc43)cc2c1 [Compound 426] | 16.57% |  | % Inhibition ([3]; compound at 0.1 mM (Table 314)): 5.49%

SMILES | % Inhibition ([2]; concentration screened 10 uM) | % Inhibition [3, 4] | also measured
c1ccc2c[n+](CCCCCCc3cc4ccccc4[nH]3)ccc2c1 [Compound 501] |  | 4.98% | % Inhibition ([2]; concentration screened 100 uM): 7.93%
CCCCc1ccc2[nH]c(CCCCCC[n+]3ccc4ccccc4c3)cc2c1 [Compound 531] | 8.77% | 36.55% | 
CC(=O)c1ccc2[nH]c(CCCCCC[n+]3ccccc3)cc2c1 [Compound 369] |  | 35.33% | % Inhibition ([2]; concentration screened 100 uM): 100.00%
c1ccc2[nH]c(CCCCC[n+]3cccc4ccccc43)cc2c1 [Compound 392] | 9.61% | 10.89% | 
O=C(O)c1ccc2[nH]c(CCCCCC[n+]3ccc4ccccc4c3)cc2c1 [Compound 603] | 1.60% | 51.72% | 
COC(=O)c1ccc2[nH]c(CCCCCCC[n+]3ccc4ccccc4c3)cc2c1 [Compound 598] | 8.86% | 43.33% | 
CC(C)c1ccc2[nH]c(CCCCCC[n+]3ccccc3)cc2c1 [Compound 321] |  |  | % Inhibition ([3]; compound at 0.1 mM (Table 314)): 37.25%; % Inhibition ([2]; concentration screened 100 uM): 100.00%
COC(=O)c1ccc2[nH]c(CCC[n+]3cccc4ccccc43)cc2c1 [Compound 486] | 22.28% | 4.97% | 
c1ccc(-c2ccc3[nH]c(CCCCC[n+]4cccc5ccccc54)cc3c2)cc1 [Compound 434] | 5.64% | 5.36% | 
O=C(OCCCCCCCCc1cc2cc(C(F)(F)F)ccc2[nH]1)c1ccccc1-c1ccccc1 [Compound 614] |  | 8.32% | % Inhibition ([2]; concentration screened 100 uM): 20.35%
c1ccc(C(c2ccccc2)(c2ccccc2)c2ccc3[nH]c(CCCC[n+]4cccc5ccccc54)cc3c2)cc1 [Compound 445] | 11.21% | 5.43% | 
O=C(c1ccccc1)c1ccc2[nH]c(CCCCCC[n+]3ccc4ccccc4c3)cc2c1 [Compound 573] | 16.09% | 26.24% | 
CCCCc1ccc2[nH]c(CCCCC[n+]3cccc4ccccc43)cc2c1 [Compound 422] | 9.82% | 16.23% | 
C[n+]1cccc(C(=O)OCCCCn2ccc3cc(OCc4ccccc4)ccc32)c1 [Compound 765] |  |  | inhibition at 100 µM [3]: 90%; IC50 ([3]; lead compounds (Table 318A), read-out: IC 50): 90 µM; inhibition of growth at 10 µM ([2]; Staphylococcus, read-out: % Inhibition, S. epidermitis, concentration screened 10 uM): 9.31%
c1ccc(C(c2ccccc2)(c2ccccc2)c2ccc3[nH]c(CCCCCCC[n+]4ccc5ccccc5c4)cc3c2)cc1 [Compound 556] | 60.18% |  | % Inhibition ([3]; compound at 0.1 mM (Table 314)): 18.19%
C[n+]1cccc(C(=O)OCCCCCCn2ccc3cc([N+](=O)[O-])ccc32)c1 [Compound 865] | 50.42% and 48.55% | 46.43% | % Inhibition ([2]; concentration screened 100 uM): 94.40%
CC(C)c1ccc2[nH]c(CCCCCCCC[n+]3ccc4ccccc4c3)cc2c1 [Compound 539] | 4.67% | 16.80% | 
O=[N+]([O-])c1cc([N+](=O)[O-])c2[nH]c(CCCCC[n+]3ccc4ccccc4c3)cc2c1 [Compound 524] |  | 30.81% | % Inhibition ([2]; concentration screened 100 uM): 99.57%
O=C(O)c1ccc2[nH]c(CCCCCCCC[n+]3ccc4ccccc4c3)cc2c1 [Compound 605] |  | 68.65% | % Inhibition ([2]; concentration screened 100 uM): 44.29%
O=C(c1ccccc1)c1ccc2[nH]c(CCCCOC(=O)c3ccccc3-c3ccccc3)cc2c1 [Compound 648] |  | 5.82% | % Inhibition ([2]; concentration screened 100 uM): 14.57%
CC(=O)c1ccc2[nH]c(CCCCCCCOC(=O)C(c3ccccc3)c3ccccc3)cc2c1 [Compound 670] | 5.59% |  | % Inhibition ([3]; compound at 0.1 mM (Table 314)): 4.65%
CN(C)c1ccc(C(=O)OCCCCc2cc3cc(C(=O)c4ccccc4)ccc3[nH]2)cc1 [Compound 645] |  | 4.31% | % Inhibition ([2]; concentration screened 100 uM): 9.23%
